Source: PubChem BioAssay (NCI)
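Briefly, cells in 96-well plates were exposed to five compound concentrations for 48 h, and endpoints were estimated by linear interpolation. Definition used: TGI = concentration required for complete inhibition of growth.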

Assays:
Assay in all cases: NCI tumour cell line growth inhibition, 48 h
XF 498 CNS = tested on: XF 498 CNS
SNB-78 CNS = tested on: SNB-78 CNS
KM20L2 colon = tested on: KM20L2 colon
P388 leukemia = tested on: P388 leukemia
M19-MEL melanoma = tested on: M19-MEL melanoma
SN12K1 renal = tested on: SN12K1 renal
HOP-18 NSCLC = tested on: HOP-18 NSCLC
DMS 273 small cell lung = tested on: DMS 273 small cell lung
DMS 114 small cell lung = tested on: DMS 114 small cell lung
LXFL 529 NSCLC = tested on: LXFL 529 NSCLC

## CC(C)(C)OC(=O)NC1CCC(C(C)(C)C)CC1 (stereo not given)
XF 498 CNS
  TGI: > 96.5 µM
SNB-78 CNS
  TGI: > 100 µM
KM20L2 colon
  TGI: > 100 µM
P388 leukemia
  TGI: 48.5 µM
M19-MEL melanoma
  TGI: > 86.7 µM
SN12K1 renal
  TGI: > 100 µM
HOP-18 NSCLC
  TGI: > 100 µM
DMS 273 small cell lung
  TGI: 99.2 µM
DMS 114 small cell lung
  TGI: > 100 µM

## O=C(Oc1ccc(Cl)cc1[N+](=O)[O-])c1ccccc1
XF 498 CNS
  TGI: > 100 µM
SNB-78 CNS
  TGI: > 100 µM
KM20L2 colon
  TGI: > 100 µM
LXFL 529 NSCLC
  TGI: > 100 µM
M19-MEL melanoma
  TGI: > 100 µM
HOP-18 NSCLC
  TGI: > 100 µM
DMS 273 small cell lung
  TGI: > 100 µM
DMS 114 small cell lung
  TGI: > 100 µM

## O=C1OC2CC=CC1C2 (stereo not given)
XF 498 CNS
  TGI: > 100 µM
SNB-78 CNS
  TGI: > 100 µM
KM20L2 colon
  TGI: > 100 µM
P388 leukemia
  TGI: > 100 µM
M19-MEL melanoma
  TGI: > 100 µM
SN12K1 renal
  TGI: > 100 µM
HOP-18 NSCLC
  TGI: > 100 µM
DMS 273 small cell lung
  TGI: > 100 µM
DMS 114 small cell lung
  TGI: > 100 µM

## C=C1C(=O)OC2CC1CCC1(C)OC1CCC(C)=CCCC2(C)O (stereo not given)
XF 498 CNS
  TGI: 8.47 µM
SNB-78 CNS
  TGI: 26.3 µM
KM20L2 colon
  TGI: 8.58 µM
P388 leukemia
  TGI: 3.06 µM
M19-MEL melanoma
  TGI: 11.8 µM
SN12K1 renal
  TGI: 11.9 µM
HOP-18 NSCLC
  TGI: 3.37 µM
DMS 273 small cell lung
  TGI: 9.89 µM
DMS 114 small cell lung
  TGI: 9.27 µM
